Reference: ChEMBL document CHEMBL1151058, “Synthesis and structure-activity relationships of novel THF 1-methylcarbapenems” (1997)
Converted amounts (≈) assume the structure as drawn.

Legend:
Type in all cases: functional
[1] = system: Escherichia coli; assay: In vitro minimum inhibitory concentration required against Escherichia coli ATCC 25922 strain
[2] = system: Escherichia coli; assay: In vitro minimum inhibitory concentration required against Escherichia coli GC 1792 strain
[3] = system: Enterobacter cloacae; assay: In vitro minimum inhibitory concentration required against Enterobacter cloacae GC 2209 strain
[4] = organism: Sus scrofa; assay: Relative hydrolysis was measured by hog renal dehydropeptidase (DHP).
[5] = system: Staphylococcus aureus; assay: In vitro minimum inhibitory concentration required against Staphylococcus aureus ATCC 29213 strain
[6] = system: Acinetobacter calcoaceticus; assay: In vitro minimum inhibitory concentration required against Acinetobacter calcoaceticus GC 756 strain
[7] = system: Citrobacter freundii; assay: In vitro minimum inhibitory concentration required against Citrobacter freundii GC 2211 strain
[8] = system: Enterococcus faecium; assay: In vitro minimum inhibitory concentration required against Enterococcus faecium GC 1182 strain
[9] = system: Enterococcus faecalis; assay: In vitro minimum inhibitory concentration required against Enterococcus faecalis GC 842 strain
[10] = system: Morganella morganii; assay: In vitro minimum inhibitory concentration required against Morganella morganii GC 2213 strain
[11] = system: Pseudomonas aeruginosa; assay: In vitro minimum inhibitory concentration required against Pseudomonas aeruginosa ATCC 27853 strain
[12] = system: Pseudomonas aeruginosa; assay: In vitro minimum inhibitory concentration required against Pseudomonas aeruginosa GC 1544 oprD- strain
[13] = system: Staphylococcus aureus; assay: In vitro minimum inhibitory concentration required against Staphylococcus aureus GC 2220 MRSA strain
[14] = system: Stenotrophomonas maltophilia; assay: In vitro minimum inhibitory concentration required against Xanthomonas maltophilia GC 562 strain
[15] = system: Escherichia coli; assay: In vitro minimum inhibitory concentration required against Escherichia coli GC 2205 strain
[16] = system: Escherichia coli; assay: Effective single oral dose required for inhibition of Escherichia coli in mice
[17] = system: Escherichia coli; assay: Effective single subcutaneous dose required for inhibition of Escherichia coli in mice
[18] = Acinetobacter calcoaceticus, read-out: MIC
[19] = Enterococcus faecium, read-out: MIC
[20] = Enterococcus faecalis, read-out: MIC
[21] = Escherichia coli, po, read-out: ED50
[22] = Escherichia coli, sc, read-out: ED50

SMILES	MIC [1] [µg/mL]	MIC [2] [µg/mL]	MIC [3] [µg/mL]	Relative hydrolysis [4]	MIC [5] [µg/mL]	MIC [6, 18] [µg/mL]	MIC [7] [µg/mL]	MIC [8, 19] [µg/mL]	MIC [9, 20] [µg/mL]	MIC [10] [µg/mL]	MIC [11] [µg/mL]	MIC [12] [µg/mL]	MIC [13] [µg/mL]	MIC [14] [µg/mL]	MIC [15] [µg/mL]	also measured
C[C@H]1C(S[C@H]2COC[C@H]2CN)=C(C(=O)O)N2C(=O)[C@H]([C@@H](C)O)C12 (some centres undefined)	≤ 0.06	≤ 0.06	≤ 0.06	< 1	≤ 0.06	–	–	–	–	–	–	–	–	–	–	–
C[C@H]1C(S[C@H]2COC[C@@H]2CN)=C(C(=O)O)N2C(=O)[C@H]([C@@H](C)O)C12 (some centres undefined)	0.5 (≈ 1.46 µM)	0.5 (≈ 1.46 µM)	0.5 (≈ 1.46 µM)	37	0.12 (≈ 0.35 µM)	8 (≈ 23.4 µM)	1 (≈ 2.92 µM)	> 128	8 (≈ 23.4 µM)	4 (≈ 11.7 µM)	16 (≈ 46.7 µM)	64 (≈ 187 µM)	16 (≈ 46.7 µM)	> 128	0.5 (≈ 1.46 µM)	–
C[C@@H](O)[C@H]1C(=O)N2C(C(=O)O)=C(SCCNC=N)C[C@H]12 [IMIPENEM ANHYDROUS]	–	≤ 0.06	≤ 0.06	100	≤ 0.06	–	–	–	–	–	–	–	–	–	–	ED50 [16, 21]: 79 mg/kg; ED50 [17, 22]: 0.67 mg/kg
C[C@H]1C(SC2COC(CN)C2)=C(C(=O)O)N2C(=O)[C@H]([C@@H](C)O)C12 (stereo in doubt; 3b) [listing 1 of 2 here]	–	–	–	–	–	–	–	–	–	–	–	–	–	–	–	MIC [6]: 2 µg/mL (≈ 5.84 µM); ED50 [16]: 3.5 mg/kg; ED50 [17]: 0.28 mg/kg; MIC [8]: 128 µg/mL (≈ 374 µM); MIC [9]: 2 µg/mL (≈ 5.84 µM)
C[C@@H](O)[C@H]1C(=O)N2C(C(=O)O)=C(S[C@@H]3CN[C@H](C(=O)N(C)C)C3)[C@H](C)[C@H]12 [MEROPENEM]	≤ 0.06	≤ 0.06	≤ 0.06	28	≤ 0.06	0.5 (≈ 1.3 µM)	≤ 0.06	> 128	2 (≈ 5.22 µM)	≤ 0.06	0.25 (≈ 0.652 µM)	4 (≈ 10.4 µM)	8 (≈ 20.9 µM)	> 128	≤ 0.06	–
C[C@H]1C(S[C@H]2CO[C@H](CN)C2)=C(C(=O)O)N2C(=O)[C@H]([C@@H](C)O)C12 (some centres undefined)	≤ 0.06	≤ 0.06	≤ 0.06	–	≤ 0.06	1 (≈ 2.92 µM)	≤ 0.06	> 128	2 (≈ 5.84 µM)	0.25 (≈ 0.73 µM)	2 (≈ 5.84 µM)	8 (≈ 23.4 µM)	8 (≈ 23.4 µM)	> 128	≤ 0.06	–
C[C@H]1C(SC2COC(CN)C2)=C(C(=O)O)N2C(=O)[C@H]([C@@H](C)O)C12 (stereo in doubt; 3a) [listing 1 of 2 here]	≤ 0.06	≤ 0.06	≤ 0.06	–	≤ 0.06	1 (≈ 2.92 µM)	≤ 0.06	–	–	–	–	–	–	–	≤ 0.06	ED50 [16, 21]: 3.7 mg/kg; ED50 [17, 22]: 0.27 mg/kg
C[C@H]1C(S[C@H]2CO[C@@H](CN)C2)=C(C(=O)O)N2C(=O)[C@H]([C@@H](C)O)C12 (some centres undefined)	≤ 0.06	≤ 0.06	≤ 0.06	10	≤ 0.06	2 (≈ 5.84 µM)	0.12 (≈ 0.35 µM)	> 128	4 (≈ 11.7 µM)	0.5 (≈ 1.46 µM)	16 (≈ 46.7 µM)	32 (≈ 93.5 µM)	8 (≈ 23.4 µM)	> 128	≤ 0.06	–
C[C@H]1C(S[C@H]2CCO[C@H]2CN)=C(C(=O)O)N2C(=O)[C@H]([C@@H](C)O)C12 (some centres undefined)	0.5 (≈ 1.46 µM)	0.5 (≈ 1.46 µM)	0.25 (≈ 0.73 µM)	4.5	0.12 (≈ 0.35 µM)	4 (≈ 11.7 µM)	0.5 (≈ 1.46 µM)	128 (≈ 374 µM)	4 (≈ 11.7 µM)	2 (≈ 5.84 µM)	4 (≈ 11.7 µM)	16 (≈ 46.7 µM)	8 (≈ 23.4 µM)	> 128	0.5 (≈ 1.46 µM)	–
C[C@H]1C(SC2COC(CN)C2)=C(C(=O)O)N2C(=O)[C@H]([C@@H](C)O)C12 (stereo in doubt; 3b) [listing 2 of 2 here]	–	–	–	10	–	–	–	–	–	–	–	–	–	–	–	–
C[C@H]1C(S[C@H]2CCO[C@@H]2CN)=C(C(=O)O)N2C(=O)[C@H]([C@@H](C)O)C12 (some centres undefined)	0.5 (≈ 1.46 µM)	0.5 (≈ 1.46 µM)	0.5 (≈ 1.46 µM)	18	0.06 (≈ 0.175 µM)	–	1 (≈ 2.92 µM)	> 64	8 (≈ 23.4 µM)	2 (≈ 5.84 µM)	16 (≈ 46.7 µM)	32 (≈ 93.5 µM)	4 (≈ 11.7 µM)	> 64	0.25 (≈ 0.73 µM)	–
C[C@H]1C(S[C@@H]2CO[C@H](CN)C2)=C(C(=O)O)N2C(=O)[C@H]([C@@H](C)O)C12 (some centres undefined)	≤ 0.06	≤ 0.06	≤ 0.06	7.3	≤ 0.06	2 (≈ 5.84 µM)	0.12 (≈ 0.35 µM)	128 (≈ 374 µM)	4 (≈ 11.7 µM)	0.5 (≈ 1.46 µM)	8 (≈ 23.4 µM)	16 (≈ 46.7 µM)	4 (≈ 11.7 µM)	> 128	0.12 (≈ 0.35 µM)	–
C[C@H]1C(S[C@@H]2COC[C@H]2CN)=C(C(=O)O)N2C(=O)[C@H]([C@@H](C)O)C12 (some centres undefined)	0.25 (≈ 0.73 µM)	0.25 (≈ 0.73 µM)	0.25 (≈ 0.73 µM)	39	0.12 (≈ 0.35 µM)	16 (≈ 46.7 µM)	1 (≈ 2.92 µM)	> 128	8 (≈ 23.4 µM)	4 (≈ 11.7 µM)	32 (≈ 93.5 µM)	64 (≈ 187 µM)	16 (≈ 46.7 µM)	> 128	0.25 (≈ 0.73 µM)	–
C[C@H]1C(SC2COC(CN)C2)=C(C(=O)O)N2C(=O)[C@H]([C@@H](C)O)C12 (stereo in doubt; 3a) [listing 2 of 2 here]	–	–	–	19	–	–	–	–	–	–	–	–	–	–	–	–
C[C@H]1C(S[C@@H]2COC[C@@H]2CN)=C(C(=O)O)N2C(=O)[C@H]([C@@H](C)O)C12 (some centres undefined)	–	–	–	< 1	–	–	–	–	–	–	–	–	–	–	–	–
C[C@@H](O)[C@H]1C(=O)N2C(C(=O)O)=C(S[C@@H]3CCO[C@@H]3CN)[C@H](C)[C@H]12	–	–	–	8.5	–	–	–	–	–	–	–	–	–	–	–	ED50 [16, 21]: 3.8 mg/kg; ED50 [17, 22]: 0.34 mg/kg
